Source: article PMC6318026 (Molecular cancer therapeutics, 2018)

Molecular target: dihydroorotate dehydrogenase (DHODH) (Homo sapiens, UniProt Q02127)
Test: recombinant DHODH enzyme assay
Assay type: biochemical

Chain of dihydroorotate dehydrogenase (DHODH) (Q02127 whole entry): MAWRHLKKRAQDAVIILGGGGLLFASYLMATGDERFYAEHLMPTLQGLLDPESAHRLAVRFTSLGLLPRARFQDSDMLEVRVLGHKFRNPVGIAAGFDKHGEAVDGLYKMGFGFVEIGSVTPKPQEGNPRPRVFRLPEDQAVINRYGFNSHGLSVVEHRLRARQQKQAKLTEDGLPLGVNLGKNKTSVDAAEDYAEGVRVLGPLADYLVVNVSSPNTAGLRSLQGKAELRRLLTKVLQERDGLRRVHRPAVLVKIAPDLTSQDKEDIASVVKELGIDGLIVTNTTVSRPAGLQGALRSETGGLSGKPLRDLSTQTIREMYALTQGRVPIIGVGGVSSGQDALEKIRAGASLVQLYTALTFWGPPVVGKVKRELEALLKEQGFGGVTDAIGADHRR

C/C(O)=C(\C#N)C(=O)Nc1ccc(C(F)(F)F)cc1 [teriflunomide]
recombinant DHODH enzyme assay; isolated mitochondria assay: inhibited the activity of recombinant DHODH using in vitro enzyme assays, though not as potently as do brequinar or teriflunomide
